Columns and labels:
Assay type in all cases: cell-based
[1] = tested on: Muscle bind like protein 1 (MBNL1); experiment: MBNL1 quantification in human skeletal muscle cells by TR-FRET (Examples 7, 19); conditions: hSkMc (Innoprot), 0.5 mg/ml, 48 hours, normalized to total protein
Description: MBNL1 induction by the peptides of the invention is evaluated by a Time resolved fluorescence resonance energy transfer (TR-FRET) assay. The aim of this study is to investigate the capacity of peptide candidates to increase MBNL1 in human skeletal muscle cells (hSkMc).
hSkMc (Innoprot) are seeded in 12-well plates at a density of 1.5×10^4 cells/well in Skeletal Muscle Cell Growth Medium (Promocell). After 72 hours incubation, medium is removed and replaced with Skeletal Muscle Cell Differentiation Medium (Promocell). 48 hours after beginning cell differentiation, fresh differentiation medium with 0.5 mg/ml of test items is added. Treatment is continued for 48 hours and non-treated cells are used as basal control. After 48 hours of treatment, cell medium is removed and added cell lysis buffer to wells. Immediately, plates are kept at −80° C. in order to improve protein extraction during the defrosting process. After 72 hours, cells are lysated by shaking the plates in an orbital rotor at room temperature for 45 minutes. Next, cell lysates are collected and assayed to quantify the level of MBNL1 protein and total protein concentration.
MBNL1 protein levels measurement is performed with Human MBNL1 Assay Kit (Cisbio) according to the manufacturer's protocol. Briefly, the kit is used to perform a TR-FRET for MBNL1 quantification. The protein is detected with the antibodies provided in the kit and quantified by a fluorescence measurement. The quantification is carried out by using a microplate reader (ClarioStar, BMG) set to 665 nm and 620 nm.
Total protein concentration of cell lysate is determined by using Pierce BCA Protein Assay Kit™ (Thermo Scientific) according to manufacturer's protocol. In brief, after adding Working Reagent to the samples and the standards, the samples are incubated. Afterwards, color change is measured with an absorbance microplate reader (Clariostar™, BMG) at 562 nm. The total protein amount is used to normalize the level of MBNL1 protein concentration obtained by the TR-FRET test in the samples.
Different peptides of the invention are tested as disclosed in Example 7 at 0.5 mg/mL.

[2] = tested on: Muscle bind like protein 1 (MBNL1); experiment: MBNL1 quantification in human dermal fibroblasts by immunofluorescence (Example 8); conditions: HDF, 1, 0.5 and 0.01 mg/ml, 24 hours, nuclear fluorescence normalized by nuclei
Description: MBNL1 induction by the peptides of the invention is evaluated by an Immunofluorescence assay. The aim of this study is to investigate the capacity of peptide candidates to increase MBNL1 in human dermal fibroblasts (HDF).
HDF (Cascade) are seeded in 96-well plates at a density of 8×10^3 cells/well in Fibroblast Growth Medium (Promocell). After 48 hours incubation, medium is removed and fresh medium with 1, 0.5 and 0.01 mg/ml of test items is added. Treatment is continued for 24 hours and non-treated cells are used as basal control. After 24 hours of treatment, an immunofluorescence is performed. Cells are fixed 15 minutes with 4% Paraformaldehide (Sigma), permeated 15 minutes with 1% Triton X-100 (Sigma) and then blocked with 5% Bovine Serum Albumin (Sigma). Next, primary antibody Anti-MBNL1 Rabbit (Sigma) is added and incubated for 2 hours. After that, secondary antibody Alexa Fluor™ 488 goat anti-rabbit IgG (Life Technologies) is added and incubated for 1 hour. To stain nuclei, Hoechst (Life Technologies) is added and incubated for 10 minutes. Finally, MBNL1 cell nuclei fluorescence intensity and nuclei number are measured by Operetta™ (Perkin Elmer). Fluorescence is normalized by cell nuclei and results are represented respect to basal control.

[3] = tested on: human muscular skeletal cells (hSKMC); experiment: Alleviation (correction) of TNF-α induced muscle mass loss in human skeletal muscle cells, immunofluorescence (Example 10); conditions: 0.01 mg/ml after 24 hours of 20 ng/ml TNFα, myotube diameter threshold 20 μm
Description: Muscle mass loss correction by the peptides of the invention is evaluated by an immunofluorescence assay. The aim of this study is to investigate the capacity of peptide candidates to correct muscular mass loss after treatment with TNF-α in human muscular skeletal cells (hSKMC). Myosin heavy chain (MHyC) is used as a morphologic marker of differentiated myotubes allowing the measurement of their diameter, and therefore knowing their degree of mass loss. Tumor necrosis factor α (TNF-α) has been described in the literature as a muscle mass loss inductor.
hSKMC (Tebu-Bio) are seeded in 96-well plates at a density of 1.5×10^4 cells/well in Skeletal Muscle Cell Growth Medium (Promocell). After 24 hours incubation, medium is replaced with Skeletal Muscle Cell Differentiation Medium (Promocell) and cells are differentiated for 6 days. After this, muscular cells mass loss is induced by adding fresh differentiation medium with 20 ng/ml TNFα (Sigma). Non-TNFα treated cells are used as basal mass loss control (BC). […] After 24 hours after the second treatment, immunofluorescence is determined. […] Finally, myotube diameter is determined by imaging MHyC staining by Operetta™ (Perkin Elmer). Percentage of mass loss is automatically calculated with Harmony™ (Perkin Elmer) software by classifying myotubes according to their diameter using a mass loss threshold of 20 μm.

Substance: Ac-Asp-Val-Tyr-Lys-NH2 (Ac-DVYK-NH2) [PEP1]
- MBNL1 levels compared to the basal control [1]: increase MBNL1 levels
- MBNL1 levels compared to the basal control [2]: increase MBNL1 levels
- muscle mass loss compared to basal control treated with TNF-α (correction) [3]: correct (i.e., reduces) mass loss

Substance: H-Ala-Leu-Lys-Pro-Asn-Thr-NH2 (H-ALKPNT-NH2) [PEP2]
- MBNL1 levels compared to the basal control [1]: increase MBNL1 levels
- MBNL1 levels compared to the basal control [2]: increase MBNL1 levels
- muscle mass loss compared to basal control treated with TNF-α (correction) [3]: correct (i.e., reduces) mass loss
